Test results published in paper PMC10436550, “Subacute toxicity evaluations of LPM3480392 in rats, a full µ-opioid receptor biased agonist” (Frontiers in Pharmacology, 2023).

Tested on: Sprague Dawley (SD) rats
Test: Hematology, 4-week subacute toxicity study
[1] = female rats, 1.2 mg/kg/day, End of dosing phase
[2] = female rats, 1.2 mg/kg/day, End of recovery phase
[3] = female rats, 2.4 mg/kg/day, End of dosing phase
[4] = female rats, 2.4 mg/kg/day, End of recovery phase
[5] = female rats, end of dosing phase
[6] = male rats, 0.6 mg/kg/day, End of dosing phase
[7] = male rats, 0.6 mg/kg/day, End of recovery phase
[8] = male rats, 1.2 mg/kg/day, End of dosing phase
[9] = male rats, 1.2 mg/kg/day, End of recovery phase
[10] = male rats, 2.4 mg/kg/day, End of dosing phase
[11] = male rats, 2.4 mg/kg/day, End of recovery phase

For `Fc1ccc([C@]2(CCNCc3cccc(Cl)c3)CCO[C@]3(CCOC3)C2)nc1` [LPM3480392], the RBC [1] was 6.59 ± 0.26^* 10^12/L, the WBC [1] was 4.87 ± 1.28 10^9/L and the LYM [2] was 2.95 ± 0.75 10^9/L. The LYM% [2] was 85.9 ± 3.0 %, the MCV [2] was 56.6 ± 1.8 fL and the MONO [2] was 0.04 ± 0.01 10^9/L. The MONO% [2] was 1.2 ± 0.4 %, the NEU [2] was 0.35 ± 0.08^* 10^9/L and the NEU% [2] was 10.6 ± 2.5 %. The PLT [2] was 975 ± 42 10^9/L, the RBC [2] was 7.44 ± 0.33 10^12/L and the WBC [2] was 3.42 ± 0.78 10^9/L. The LYM [3] was 2.53 ± 0.59 10^9/L, the LYM% [3] was 81.1 ± 5.3% and the MCV [3] was 58.1 ± 1.9 fL. For the same molecule, the MONO [3] was 0.03 ± 0.02^* 10^9/L, the MONO% [3] was 1.0 ± 0.3 % and the NEU [3] was 0.51 ± 0.29 10^9/L. The NEU% [3] was 15.4 ± 4.6%, the PLT [3] was 946 ± 108^* 10^9/L and the RBC [3] was 6.57 ± 0.30^* 10^12/L. The WBC [3] was 3.15 ± 0.87 10^9/L, the LYM [4] was 3.02 ± 0.62 10^9/L and the LYM% [4] was 83.7 ± 3.4 %. The MCV [4] was 56.8 ± 0.8 fL, the MONO [4] was 0.04 ± 0.01 10^9/L and the MONO% [4] was 1.2 ± 0.3 %. The NEU [4] was 0.46 ± 0.09^* 10^9/L, the NEU% [4] was 12.8 ± 2.8 % and the PLT [4] was 998 ± 45 10^9/L. The RBC [4] was 7.45 ± 0.17 10^12/L, the WBC [4] was 3.60 ± 0.67 10^9/L and the “Magnitude of change of MCV” value [5] was “less than 5%”. The “Magnitude of change of PLT” value [5] was under 15%, the “Magnitude of change of RBC” value [5] was under 6% and the EOS [6] was 0.042 ± 0.013 10^9/L. The EOS% [6] was 0.90 ± 0.42%, the MONO [6] was 0.07 ± 0.03 10^9/L and the MONO% [6] was 1.3 ± 0.6%. For the same molecule, the RBC [6] was 7.05 ± 0.32 10^12/L, the RET [6] was 0.300 ± 0.051 10^12/L and the RET % [6] was 4.26 ± 0.77%. For the same molecule, the WBC [6] was 5.19 ± 1.38 10^9/L, the EOS [7] was 0.046 ± 0.018 10^9/L and the EOS% [7] was 1.14 ± 0.38%. For the same molecule, the MONO [7] was 0.04 ± 0.02 10^9/L, the MONO% [7] was 1.0 ± 0.4% and the RBC [7] was 7.96 ± 0.24 10^12/L. For the same molecule, the RET [7] was 0.144 ± 0.021 10^12/L, the RET % [7] was 1.81 ± 0.30% and the WBC [7] was 4.04 ± 1.12 10^9/L. For the same molecule, the EOS [8] was 0.035 ± 0.016^* 10^9/L, the EOS% [8] was 0.77 ± 0.39% and the MONO [8] was 0.05 ± 0.02 10^9/L. For the same molecule, the MONO% [8] was 1.1 ± 0.3%, the RBC [8] was 7.06 ± 0.32 10^12/L and the RET [8] was 0.331 ± 0.062^* 10^12/L. For the same molecule, the RET % [8] was 4.70 ± 0.92 %, the WBC [8] was 4.56 ± 0.55 10^9/L and the EOS [9] was 0.042 ± 0.013 10^9/L. For the same molecule, the EOS% [9] was 0.90 ± 0.12%, the MONO [9] was 0.04 ± 0.02 10^9/L and the MONO% [9] was 0.9 ± 0.3%. For the same molecule, the RBC [9] was 7.99 ± 0.29 10^12/L, the RET [9] was 0.132 ± 0.017 10^12/L and the RET % [9] was 1.65 ± 0.21%. The WBC [9] was 4.50 ± 1.16 10^9/L, the EOS [10] was 0.022 ± 0.014^* 10^9/L and the EOS% [10] was 0.49 ± 0.29 %. For the same molecule, the MONO [10] was 0.04 ± 0.02^* 10^9/L, the MONO% [10] was 0.9 ± 0.4% and the RBC [10] was 7.05 ± 0.37 10^12/L. For the same molecule, the RET [10] was 0.387 ± 0.053^* 10^12/L, the RET % [10] was 5.51 ± 0.83 % and the WBC [10] was 4.24 ± 0.98 10^9/L. The EOS [11] was 0.032 ± 0.011 10^9/L, the EOS% [11] was 0.66 ± 0.21% and the MONO [11] was 0.05 ± 0.02 10^9/L. The MONO% [11] was 1.1 ± 0.3%, the RBC [11] was 7.62 ± 0.37 10^12/L and the RET [11] was 0.157 ± 0.008 10^12/L. The RET % [11] was 2.07 ± 0.11 % and the WBC [11] was 5.02 ± 0.40 10^9/L.
